Like-named read-outs stand apart in the source and are kept apart here.
Columns and labels:
Assay type in all cases: cell-based, human
IGROV1 (EOC) = assay: proliferation assay, IGROV1 epithelial ovarian cancer cells; details: folate-/glycine-free RPMI1640 with 25 nM leucovorin, read-out: IC50s (SE) IGROV1 (EOC)
Description: (§1) Proliferation assays were performed with engineered Chinese hamster ovary (CHO) cell lines R2 (transporter-null), PC43-10 (expresses RFC only), RT16 (FRα only), and R2/PCFT4 (PCFT only) cultured in folate-/glycine-free RPMI1640 supplemented with 25 nM leucovorin. Additional results are shown for HCT116 (colon tumor cells (CTC)), IGROV1 (epithelial ovarian cancer (EOC) cells), H460 (non-small cell lung cancer (NSCLC) cells), MIAPaCa-2 (pancreatic cancer (PaC) cells), and HPAC (PaC).
(§2) For proliferation assays of the HCT116, H460, and MIA PaCa2 tumor cell lines, the cells were plated in 96-well plates in an identical manner to the CHO experiments, except that the maximal drug concentration was increased to 10 µM. Glycine/nucleoside protection experiments in CHO and tumor cell lines were performed in folate- and glycine-free RPMI 1640/10% dialyzed fetal bovine serum supplemented with 25 nM leucovorin without additions, or in the presence of adenosine (60 µM), thymidine (10 µM), glycine (130 µM) and/or 5-aminoimidazole-4-carboxamide (AICA) (320 µM). Growth of metabolite-treated cells was normalized to controls treated with metabolites and vehicle (i.e., DMSO) both singly and in combination. Treatments with all metabolites were performed in parallel on the same plate for a given drug.

H460 cells [1] = assay: glycine/nucleoside protection of growth inhibition in H460 cells; details: for protection from growth inhibition by combined adenosine and glycine: adenosine 60 µM plus glycine 130 µM; for protection from growth inhibition by glycine or adenosine alone: glycine 130 µM or adenosine 60 µM, singly
Description: We also tested the protective effects of AICA (320 µM) which is metabolized to AICAR (ZMP) (AICARFTase substrate), thus circumventing the GARFTase step in de novo purine biosynthesis (27) (see FIG. 1). […] Analogous results were obtained with HCT116 and MIA PaCa-2 tumor cells (see FIG. 14).
as §2

H460 (NSCLC) = assay: proliferation assay, H460 non-small cell lung cancer cells; details: folate-/glycine-free RPMI1640 with 25 nM leucovorin, 96 h, read-out: IC50s (SE) H460 (NSCLC)
Description: as §1
Cell culture and proliferation/protection assays. The HCT116 cell lines including the serine hydroxymethyltransferase (SHMT) 1, SHMT2, and methylene THF dehydrogenase 2 (MTHFD2) knockout (KO) cells were previously described (47,53). The H460 cell line was obtained from the American Type Culture Collection (Manassas, VA), whereas the MIA PaCa-2 cells were provided by Dr. Yubin Ge (Karmanos Cancer Institute). Cell lines were verified by STR analysis by Genetica DNA Laboratories (Burlington, NC). MTXRIIOua^R2-4 (i.e. R2) Chinese hamster ovary (CHO) cells were generously provided by Dr. Wayne Flintoff (University of Western Ontario) (54). From this parental R2 cell line, human RFC and PCFT were individually transfected to generate the isogenic CHO cell lines designated PC43-10 (RFC) and R2/PCFT4 (PCFT) (55-57). Human tumor cell lines were cultured in folate-free RPMI supplemented with 10% dialyzed fetal bovine serum (Sigma-Aldrich), 1% penicillin/streptomycin solution, 2 mM L-glutamine, and 25 nM leucovorin in a humidified atmosphere at 37° C. in the presence of 5% CO2 and 95% air. The CHO cell lines were cultured in alpha-minimal essential medium (alpha-MEM) supplemented with 10% bovine calf serum, 1% penicillin/streptomycin solution, and 2 mM L-glutamine. Additionally, the transfected CHO cell lines (i.e. R2/PCFT4 and PC43-10) were maintained under continuous selection with 1 mg/ml of G418. […]

HCT116 cells = assay: targeted metabolomics with [2,3,3-2H]serine tracer, HCT116 cells; details: 10 µM drug; for increase of total serine: HCT116 WT cells, relative to WT controls; for M+1 serine: WT HCT116 cells
Excerpt: (§3) Identification of the mitochondrial enzyme target for AGF291, AGF320, and AGF347 by targeted metabolomics. […] The cells were processed for LC-MS analyses of total serine, and of M+3, M+2, M+1, and M+0 (unlabeled) serine (where M+n represents species with n deuterium atoms). The results with the drug-treated cells were compared to those for untreated cells. For WT HCT116 cells, the results were compared to those for SHMT2 KO, MTHFD2 KO, and SHMT1 KO cells (KO of SHMT2, MTHFD2, and SHMT1, respectively (20)). For H460 cells, controls included non-targeted control (NTC) and SHMT2 shRNA knockdown (KD) cells.
(§4) Targeted Metabolomics. Targeted metabolomics were performed essentially as previously described (47, 53). Briefly, cells (H460, HCT116, MIA PaCa-2) (1 million cells /dish for vehicle-treated samples, 1.5 million cells/dish for drug-treated samples) were seeded in triplicate 60 mm dishes in 5 ml of folate-free RPMI (contains glycine and unlabeled serine) supplemented with 10% dialyzed fetal bovine serum, 1% penicillin/streptomycin, 2 mM L-glutamine, and 25 nM leucovorin. Cells were allowed to adhere for 24 h. […] After 16 h, the cells were washed with PBS (3×), the media was replaced with folate- and serine-free culture media (containing glycine) supplemented with 10% dialyzed fetal bovine serine, 25 nM leucovorin, and [2,3,3-^2H]serine (250 µM), including 10 µM drug or DMSO vehicle. The cells were incubated for 24 h. All incubations were at 37° C. with 5% CO2. The media was aspirated, and cells were washed (3×) rapidly (< 30 s) with 5 mL ice-cold PBS; metabolism was quickly quenched with methanol:water (80:20) at -80° C. Cells were allowed to rock on dry ice for 10 min to cover the entire dish with 80:20 methanol:water (at -80° C.), then harvested by scraping and pipetting into 1.5 mL Eppendorf tubes. The tubes were centrifuged (4° C., 14000 RPM, 10 min) to fully extract metabolites into the methanol:water supernatant. The protein pellet was used for normalization. The supernatants were collected and analyzed by reversed-phase ion-pairing chromatography coupled with negative-mode electrospray-ionization high-resolution mass spectrometry on a stand-alone Orbitrap (ThermoFisher Exactive). Raw metabolite values were adjusted to correct for normal ion distributions and normalized to total proteins from the post-extraction pellet by solubilizing with 0.5 N NaOH and using the Folin-phenol protein method (13). Values below the limit of detection were assigned a value of 100 for normalization. Results for drug-treated and SHMT2 KD cells were normalized to vehicle-treated WT ± formate or NTC ± formate samples, as appropriate.

HPAC (PaC) = assay: proliferation assay, HPAC pancreatic cancer cells; details: folate-/glycine-free RPMI1640 with 25 nM leucovorin, read-out: IC50s (SE) HPAC (PaC)
Description: as §1, §2

H460 cells [2] = assay: targeted metabolomics with [2,3,3-2H]serine tracer, H460 cells; details: 10 µM drug
Excerpt: as §3
as §4, with “The tubes were centrifuged (4° C., 14000 RPM, 10 min) to fully extract metabolites into the methanol:water supernatant. The protein pellet was used for normalization.” left out, “Raw metabolite values were adjusted to correct for normal ion distributions and normalized to total proteins from the post-extraction pellet by solubilizing with 0.5 N NaOH and using the Folin-phenol protein method (13). Values below the limit of detection were assigned a value of 100 for normalization. Results for drug-treated and SHMT2 KD cells were normalized to vehicle-treated WT ± formate or NTC ± formate samples, as appropriate.” left out

Row | Compound | IC50 (IGROV1 (EOC); Homo sapiens, IGROV-1) | protection from growth inhibition by combined adenosine and glycine (H460 cells [1]) | protection from growth inhibition by glycine or adenosine alone (H460 cells [1]) | IC50 (H460 (NSCLC); Homo sapiens, NCI-H460) | increase of total serine (HCT116 cells) | M+1 serine (HCT116 cells) | IC50 (HPAC (PaC); Homo sapiens, HPAC) | dTTP isotope distribution from [2,3,3-2H]serine (H460 cells [2]) | IC50 (IGROV1 (EOC)) | reversal of growth inhibition by AICA (with glycine) (H460 cells [1]; AICA 320 µM with glycine) | IC50 (H460 (NSCLC)) | IC50 (HPAC (PaC))
1 | Nc1nc2ccn(CCCc3ccc(C(=O)N[C@@H](CCC(=O)O)C(=O)O)cc3)c2c(=O)[nH]1 [AGF291] | 443 nM | substantially protective | neither glycine nor adenosine alone was fully protective | 461 nM | ~ 10 fold | nearly complete loss | 301 nM | M+1 dTTP without M+2 dTTP | – | – | – | –
2 | Nc1nc2ccn(CCCCCc3ccc(C(=O)N[C@@H](CCC(=O)O)C(=O)O)s3)c2c(=O)[nH]1 [AGF320] | – | substantially protective | neither glycine nor adenosine alone was fully protective | – | ~ 10 fold | nearly complete loss | – | M+1 dTTP without M+2 dTTP | 401 nM | modestly (and incompletely) reversed | 573 nM | 190 nM
3 | (2-amino-4-oxo-3,4-dihydro-5H-pyrrolo[3,2-d]pyrimidin-5-yl)butyl)-2-fluorobenzoyl)-L-glutamic acid [AGF347] | – | substantially protective | neither glycine nor adenosine alone was fully protective | – | ~ 10 fold | nearly complete loss | – | M+1 dTTP without M+2 dTTP | 62 nM | – | 214 nM | 764 nM
